Results taken from patent US20060167229A1, “Biologically active peptide conjugates” (priority 2002, published 2006).
Marks after values point to notes of the source that are not given here. Ends that are not written are not given here.

Experiments:
[1] = system: NK cell; assay: NK cell activity in mice with ascitic fluid type liver cancer H22; format: in vivo, BALB/c mice; conditions: saline 24.0 ± 8.2
Experimental: Healthy BALB/c mice were randomised into peptide group, rmIFN-γ group, rhIL-2 group, and saline group, 15 mice per group, and prepared into H22 carrying mice model as described in section Method 3. After implantation of the cancer cells, the test substances were administered for 15 days, the mice were killed by cervical dislocation. The spleen was isolated aseptically and manually dispersed in cold D-Hank's solution using an injection needle. The dispersed cell suspension was further sieved through a 100-gauge 150 μm diameter stainless steel sieve. After centrifugation at 200 g for 10 minutes, the supernatant was discarded. The cell pellet was re-suspended in 10 volume of Tris-NH4Cl buffer and then kept standing still for 10 minutes at room temperature. The suspended cells were collected by centrifugation at 150 g for 10 minutes. The cells were washed 2-4 times with cold D-Hank's solution by re-suspending and collecting by centrifugation with condition as described above. The washed cells were then diluted to the desired cell densities by RPMI-1640 culture medium, containing 10% fetal bovine serum.
Mice spleen cells were prepared to 4×10^6/ml as described in section 4.1 above. Target cells YAC-1 were brought to log phase and adjusted to 1×10^5/ml. Using a 96 wells cell culture plate, 100 μl mouse spleen cells and 100 μl culture medium were added to the control well containing only the spleen cells; 100 μl target cells and 100 μl culture medium were added to the control well containing only target cells; 100 μl mouse spleen cells and 100 μl target cells were added to the NK activity assay well. Three parallel sets of the above were prepared per mouse. After that, the 96 wells cell culture plates were incubated for 4 hrs at 37° C., 5% CO2.
Samples were centrifuged at 150 g for 10 minutes to collect the cells. The supernatant was discarded and 50 μl/well MTT of 1 mg/ml was added. The reaction-mixture was then shaken for 2 minutes, and incubated at 37° C., 5% CO2 for 4 hours. The supernatant was discarded after centrifugation at 150 g for 10 minutes. 120 μl 40 mM HCl-2-propanol was added and shaken for 3 minutes. An ELISA reader was used to obtain OD570 nm of each well referenced at 630 nm.
The NK cell activity index of each mouse was obtained by first deriving the average OD of the three parallel wells of each combination, then applying this average OD to the following formula: NK cell activity index=[1−(average OD of spleen and target cell well−average OD of spleen cell only well)÷(average OD of target cell only well)]×100% 5. The Effect of Peptides on the Survival of DBA/2 Mice with Transplanted L1210 Leukemia

[2] = system: B16 melanoma; assay: Melanoma lung metastasis foci after inoculation of B16 melanoma cells; format: in vivo, C57BL/6 mice
Experimental: Intraperitoneal injection, once per day. […] Treatment of all groups with testing substance lasted for 30 days or until the animal died unless otherwise specified. […] The cell concentration was adjusted to 1×10^5 per ml with Hank's solution and 0.1 ml of the cell suspension was injected via the tail vein into the testing mice to generate the B16 melanoma bearing animal model. Treatment with test substance started as described in section Method 1. […] Postmortem Examination of the Animals was Performed. The Pathological Changes were Recorded, and the Numbers of Melanoma Lung Metastasis Foci Were Counted. Results

[3] = system: ascitic fluid type liver cancer H22; assay: Survival of mice with transplanted ascitic fluid type liver cancer H22; format: in vivo, BALB/c mice; conditions: for Survival days: saline 26.2 ± 6.8
Experimental: (§1) Intraperitoneal injection, once per day. […] Treatment of all groups with testing substance lasted for 30 days or until the animal died unless otherwise specified.
Stock H22 cells were incubated in DMEM/F12 medium supplemented with 10% fetal bovine serum, 37° C./5% CO2 for 72 hrs, then washed 3-4 times with Hank's solution at room temperature. Adjust cell concentration to 1-2×10^9 per litre with Hank's solution. 0.2 ml of the cell suspension was implanted to the abdominal cavity of several BALB/c mice for 6-8 days. The mice were killed by cervical vertebra dislocation. Ascitic fluid of the mice was collected aseptically and the cell concentration adjusted to 1×10^6 per ml with Hank's solution. 0.2 ml of the cell suspension was implanted into the abdominal cavity of healthy mice to generate the H22 carrying mouse model for ascitic fluid type liver cancer. Administration of test substance started as described in section Method 1. Survival data of the mice was recorded. If the animal survived longer than the experiment, the survival days was recorded as the duration of the experiment. Mean survival day was obtained by the Kaplan-meier method in the Survival option of the SPSS software. The survival index was calculated according to the following formula: Survival index=(mean survival days in treatment group−mean survival days of control group)÷mean survival days of control group×100% 4. The Effect of Peptides on the Cellular Immunity of BALB/c Mice with Transplanted Ascitic Fluid Type Liver Cancer H22 4.1 Preparation of Spleen Cell Suspension^[1,4]

[4] = system: S180 sarcoma; assay: Growth of transplanted S180 sarcoma; format: in vivo, BALB/c mice; conditions: for Tumor weight: saline 1.29 ± 0.50
Experimental: as §1
Stock S180 sarcoma cells were incubated in DMEM/F12 medium supplemented with 10% fetal bovine serum, 37° C., 5% CO2 for 72 hrs, then washed 3-4 times with Hank's solution at room temperature. Adjust the cell concentration to 1-2×10^9 per litre with Hank's solution. […] The mice were killed by cervical vertebra dislocation. Vigorously growing and non-disrupted tumor masses were harvested and washed clean with sterile saline. The tissue was dispersed in saline to a homogenous cell suspension, in a ratio of 1 g tissue to 4 ml saline. The sarcoma bearing mice model was prepared with an injection of 0.2 ml cell suspension through the armpit. Administration of test substance treatment started as described in section Method 1.
2.2 The Tumor Growth Inhibition Index was Calculated According to the Following Formula: Tumor growth inhibition index=(mean tumor weight of control group−mean tumor weight of treatment group)÷mean tumor weight of control group 3.

[5] = dose 0.5 μg/kg i.p. once per day
[6] = dose 50 μg/kg i.p. once per day
[7] = dose 500 μg/kg i.p. once per day
[8] = controls: IL-2, IFN-γ 3 × 10^5 IU/kg, cyclophosphamide 20 mg/kg

For FNFVPP [CMS003], the “NK activity index (%)” value ([1]; dose 500 μg/kg) was 37.9 ± 14.5*^^$ %.

For IGMESAGIHETTY [CMS016], the “B16 metastatic foci in the lung, postmortem examination” value (from here on “B16 metastatic foci in the lung”) ([2]; 5 μg/kg/day) was “did not show any sign of existence of B16 metastatic foci in the lung” and the “B16 metastatic foci in the lung” value ([2]; 500 μg/kg/day) was “did not show any sign of existence of B16 metastatic foci in the lung”.

With KAVGHLDDLPGAL [CMS008] the “Survival index (%)” value ([3]; dose 5 μg/kg i.p. once per day) was 67.8%, the Survival days ([3]; dose 5 μg/kg i.p. once per day) was 50.7 ± 20.9*^& days and the “B16 metastatic foci in the lung” value ([2]; 0.5 μg/kg/day) was “did not show any sign of existence of B16 metastatic foci in the lung”. For the same molecule, the “B16 metastatic foci in the lung” value ([2]; 5 μg/kg/day) was “did not show any sign of existence of B16 metastatic foci in the lung” and the “B16 metastatic foci in the lung” value ([2]; 50 μg/kg/day) was “did not show any sign of existence of B16 metastatic foci in the lung”.

“Phe Gln Gln Gln (FQQQ; printed: Phe Gln Gln Gln) [CMS032]” was tested, and the “Survival index (%)” value [3, 5] was 63.3%, the Survival days [3, 5] was 42.8 ± 12.2*^^&$ days and the “NK activity index (%)” value ([1]; dose 5 μg/kg) was 52.6 ± 12.5*^^$& %. The “NK activity index (%)” value ([1]; dose 50 μg/kg) was 41.0 ± 18.7*^^$& %.

For “Phe Val Asn Asp (FVND; listed as Sus scrofa) [CMS035]”, the “Tumor inhibition index (%)” value ([4]; dose 5 μg/kg i.p. once per day) was 44.6% and the “Tumor weight” value ([4]; dose 5 μg/kg i.p. once per day) was 0.71 ± 0.37 g.

With “Pro Gln Asn Phe (PQNF; printed: Pro Gln Asn Phe) [CMS034]” the “Tumor inhibition index (%)” value [4, 5] was 35.9%, the “Tumor weight” value [4, 5] was 0.83 ± 0.48 g and the “NK activity index (%)” value ([1]; dose 50 μg/kg) was 57.3 ± 17.9*^^$& %.

With RVAPQQHPTL [CMS011] the “Survival index (%)” value ([3]; dose 5 μg/kg i.p. once per day) was 60.2% and the Survival days ([3]; dose 5 μg/kg i.p. once per day) was 36.4 ± 22.2*^& days.

In the case of “Tyr Ser Leu (YSL; listed as Sus scrofa) [CMS024]”, the “postmortem examination of the mice surviving longer than 90 days” value ([3]; 0.5 μg/kg/day) is reported as “did not show sign of tumor establishment”, the “mice that could survive longer than 90 days” value ([3]; 0.5 μg/kg/day, n=6, two months after the experiment ended) is reported as “more than 30%” and the “Survival index (%)” value [3, 5] is reported as 76.9%. The Survival days [3, 5] was 46.4 ± 14.8*^^&$ days, the “Survival index (%)” value ([3]; dose 5 μg/kg i.p. once per day) was 54.8% and the Survival days ([3]; dose 5 μg/kg i.p. once per day) was 40.6 ± 14.6*^&$ days. For the same molecule, the “Survival index (%)” value [3, 6] was 38.4%, the Survival days [3, 6] was 36.3 ± 12.7*^&$ days and the “NK activity index (%)” value ([1]; dose 0.5 μg/kg) was 39.3 ± 18.7*^$ %. For the same molecule, the “NK activity index (%)” value ([1]; dose 5 μg/kg) was 34.9 ± 12.1*^^$ % and the “NK activity index (%)” value ([1]; dose 50 μg/kg) was 43.6 ± 13.9*^^$& %.

VAPEEHPTLLTEAPLNPK [CMS010] was tested, and the “Tumor inhibition index (%)” value [4, 7] was 48.4% and the “Tumor weight” value [4, 7] was 0.67 ± 0.35 g.

B1: IFN-γ: recombinant mouse IFN-γ (rmIFN-γ), Beijing Biotech Inc.; positive control (protein, UniProt P01580 23-155, looked up)
Interferon gamma: HGTVIESLESLNNYFNSSGIDVEEKSLFLDIWRNWQKDGDMKILQSQIISFYLRLFEVLKDNQAISNNISVIESHLITTFFSNSKAKKDAFMSIAKFEVNNPQVQRQAFNELIRVVHQLLPESSLRKRKRSRC
For B1, the “Tumor inhibition index (%)” value [4, 8] was 25.3%, the “Tumor weight” value [4, 8] was 0.96 ± 0.45 g and the “Survival index (%)” value ([3]; control rmIFN-γ 3 × 10^5 IU/kg) was 6.1%. For the same molecule, the Survival days ([3]; controls: rhIL-2, rmIFN-γ 3 × 10^5 IU/kg, cyclophosphamide 20 mg/kg) was 27.8 ± 7.5 days and the “NK activity index (%)” value [1, 8] was 20.9 ± 3.3%.
